Positions count from the first letter of the chain named. Where “and” joins values, the source holds several entries; their conditions need not be identical. Equal values may be shown once.
Experiments:
PfCRT^Dd2 = biological target: T1, PfCRT^Dd2 (Plasmodium falciparum, UniProt Q8IBZ9, A220S/I356T/K76T/M74I/N326S/N75E/Q271E/R371I); test: Competition plot (Vtotal versus proportion of PPQ in CQ/PPQ mixtures), PfCRT^Dd2; format: cell-based; set-up: expressed in transfected cells; host or cells: Xenopus laevis oocytes injected with in vitro transcribed RNA (pSP64T); conditions: for competition plot result (binding sites): CQ/PPQ mixtures, curve with a maximum
T1 sequence (Q8IBZ9 1-424 M74I/N75E/K76T/A220S/Q271E/N326S/I356T/R371I): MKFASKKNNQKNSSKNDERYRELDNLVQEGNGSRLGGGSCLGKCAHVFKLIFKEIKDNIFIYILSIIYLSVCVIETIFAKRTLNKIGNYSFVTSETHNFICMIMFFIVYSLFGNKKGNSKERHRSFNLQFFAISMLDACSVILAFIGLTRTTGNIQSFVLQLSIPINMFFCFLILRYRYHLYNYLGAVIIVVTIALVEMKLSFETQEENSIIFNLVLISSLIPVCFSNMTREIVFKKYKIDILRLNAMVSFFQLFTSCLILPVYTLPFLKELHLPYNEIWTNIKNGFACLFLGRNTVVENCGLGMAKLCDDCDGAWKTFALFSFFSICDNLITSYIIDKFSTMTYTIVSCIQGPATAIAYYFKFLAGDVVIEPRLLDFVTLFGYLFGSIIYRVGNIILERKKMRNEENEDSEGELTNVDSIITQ
Protocol: (§1) To test this hypothesis, we performed competition plot experiments, in which the enzyme or carrier is exposed to substrate mixtures that give the same transport rate for different substrates. The experiment is performed with substrate A labeled and then repeated with substrate B labeled.
The competition plot tests whether two substrates bind to the same site or distinct sites on an enzyme or transporter. A competitive reaction would yield data points that lie on a horizontal line, whereas allosteric interactions would reveal a curved relationship. […] Vtotal was subsequently analyzed as a function of the proportion of PPQ in the mixture (P). For more details see Materials and Methods. The mean ± SEM of at least 3 independent biological replicates are shown.
The competition plot was performed as described elsewhere. […] These corresponded to values of P equal to 0, 0.25, 0.5, 0.75, 0.9 and 1. A plot of Vtotal as a function of P yielded the competition plots. If both substrates bind to the same site, then a constant Vtotal is expected across all P values (e.g. data lies on a horizontal line). If the substrates bind to different sites, and they inhibit each other’s transport, it is expected that the curve is concave with either a minimum or a maximum.

PfCRT^Dd2_F145I = biological target: T2, PfCRT^Dd2_F145I (Plasmodium falciparum, UniProt Q8IBZ9, A220S/F145I/I356T/K76T/M74I/N326S/N75E/Q271E/R371I); test: Competition plot (Vtotal versus proportion of PPQ in CQ/PPQ mixtures), PfCRT^Dd2_F145I; format: cell-based; conditions: for competition plot result (binding sites): CQ/PPQ mixtures, Vtotal dependent on P
T2 construct: expressed in transfected cells; host or cells: Xenopus laevis oocytes injected with in vitro transcribed RNA (pSP64T)
T2 sequence (Q8IBZ9 1-424 M74I/N75E/K76T/F145I/A220S/Q271E/N326S/I356T/R371I): T1 sequence (Q8IBZ9 1-424 M74I/N75E/K76T/A220S/Q271E/N326S/I356T/R371I) with F145I
Protocol: as §1, with “labeled. […] Similar results were found for PfCRT^Dd2_F145I.” for “labeled.”
Fig 3 Competition plot of the interaction of PfCRT^Dd2 (A) and PfCRT^Dd2_F145I (B) with CQ and PPQ. The competition plot tests whether two substrates bind to the same site or distinct sites on an enzyme or transporter. A competitive reaction would yield data points that lie on a horizontal line, whereas allosteric interactions would reveal a curved relationship. PfCRT-mediated drug uptake was measured from mixtures of radiolabeled CQ and PPQ that combined yielded an uptake close to saturation (Vtotal). Vtotal was subsequently analyzed as a function of the proportion of PPQ in the mixture (P). For more details see Materials and Methods. The mean ± SEM of at least 3 independent biological replicates are shown.
The competition plot was performed as described elsewhere. Briefly, a concentration of CQ and a concentration of PPQ were selected (using the parameters from Table 1), such that (i) the rate of PPQ transport was equivalent to the rate of CQ transport, and (ii) the transport rate for CQ (the less efficiently transported substrate) approached its Vmax. The resulting concentrations for PfCRT^Dd2 were [CQ]^max = 400 μM and [PPQ]^max = 23.1 μM. At these concentrations of CQ and PPQ, the expected uptake is 19.8 pmol h^-1 oocyte^-1. The resulting concentrations for PfCRT^Dd2_F145I were [CQ]^max = 400 μM and [PPQ]^max = 18.2 μM. At these concentrations of CQ and PPQ, the expected uptake is 18.2 pmol h^-1 oocyte^-1. A series of reaction buffers containing CQ and PPQ at concentrations [CQ] = (1—P) x [CQ]^max and [PPQ] = P x [PPQ]^max were assembled, where P is the proportion of PPQ in the mixture. […] These corresponded to values of P equal to 0, 0.25, 0.5, 0.75, 0.9 and 1. A plot of Vtotal as a function of P yielded the competition plots. If both substrates bind to the same site, then a constant Vtotal is expected across all P values (e.g. data lies on a horizontal line). If the substrates bind to different sites, and they inhibit each other’s transport, it is expected that the curve is concave with either a minimum or a maximum.

[1] = CQ/PPQ mixture, P = 0.25, single replicates
[2] = CQ/PPQ mixture, P = 0.5, single replicates
[3] = CQ/PPQ mixture, P = 0.75, single replicates
[4] = CQ/PPQ mixture, P = 0.9, single replicates
[5] = CQ/PPQ mixture, P = 1, single replicates
[6] = CQ/PPQ mixture, P = 0, single replicates

## Clc1ccc2c(N3CCN(CCCN4CCN(c5ccnc6cc(Cl)ccc56)CC4)CC3)ccnc2c1 [PPQ, piperaquine]
PfCRT^Dd2; [1]
  PfCRTDd2-mediated PPQ transport P = 0.25: 3.23 pmol oocyte-1 h-1 and 2.01 pmol oocyte-1 h-1 and 4.17 pmol oocyte-1 h-1
PfCRT^Dd2; [2]
  PfCRTDd2-mediated PPQ transport P = 0.5: 8.67 pmol oocyte-1 h-1 and 8.62 pmol oocyte-1 h-1 and 9.88 pmol oocyte-1 h-1
PfCRT^Dd2; [3]
  PfCRTDd2-mediated PPQ transport P = 0.75: 14.14 pmol oocyte-1 h-1 and 12.26 pmol oocyte-1 h-1 and 14.54 pmol oocyte-1 h-1
PfCRT^Dd2; [4]
  PfCRTDd2-mediated PPQ transport P = 0.9: 15.27 pmol oocyte-1 h-1 and 15.64 pmol oocyte-1 h-1 and 17.36 pmol oocyte-1 h-1 and 20.19 pmol oocyte-1 h-1
PfCRT^Dd2; [5]
  PfCRTDd2-mediated PPQ transport P = 1: 17.53 pmol oocyte-1 h-1 and 18.98 pmol oocyte-1 h-1 and 22.10 pmol oocyte-1 h-1
PfCRT^Dd2
  competition plot result (binding sites): bind at different sites
PfCRT^Dd2_F145I; [1]
  PfCRTDd2_F145I-mediated PPQ transport P = 0.25: 3.27 pmol oocyte-1 h-1 and 3.77 pmol oocyte-1 h-1 and 3.82 pmol oocyte-1 h-1
PfCRT^Dd2_F145I; [2]
  PfCRTDd2_F145I-mediated PPQ transport P = 0.5: 7.53 pmol oocyte-1 h-1 and 7.99 pmol oocyte-1 h-1 and 8.13 pmol oocyte-1 h-1
PfCRT^Dd2_F145I; [3]
  PfCRTDd2_F145I-mediated PPQ transport P = 0.75: 12.62 pmol oocyte-1 h-1 and 13.41 pmol oocyte-1 h-1 and 10.66 pmol oocyte-1 h-1
PfCRT^Dd2_F145I; [4]
  PfCRTDd2_F145I-mediated PPQ transport P = 0.9: 15.10 pmol oocyte-1 h-1 and 16.36 pmol oocyte-1 h-1 and 16.00 pmol oocyte-1 h-1
PfCRT^Dd2_F145I; [5]
  PfCRTDd2_F145I-mediated PPQ transport P = 1: 16.57 pmol oocyte-1 h-1 and 18.61 pmol oocyte-1 h-1 and 20.05 pmol oocyte-1 h-1
PfCRT^Dd2_F145I
  competition plot result (binding sites): occupy different domains

## CCN(CC)CCCC(C)Nc1ccnc2cc(Cl)ccc12 (stereo not drawn) [CQ, chloroquine]
PfCRT^Dd2; [6]
  PfCRTDd2-mediated CQ transport P = 0: 20.79 pmol oocyte-1 h-1 and 22.58 pmol oocyte-1 h-1 and 19.58 pmol oocyte-1 h-1 and 16.43 pmol oocyte-1 h-1
PfCRT^Dd2; [1]
  PfCRTDd2-mediated CQ transport P = 0.25: 18.03 pmol oocyte-1 h-1 and 18.73 pmol oocyte-1 h-1 and 18.01 pmol oocyte-1 h-1
PfCRT^Dd2; [2]
  PfCRTDd2-mediated CQ transport P = 0.5: 16.36 pmol oocyte-1 h-1 and 12.29 pmol oocyte-1 h-1
PfCRT^Dd2; [3]
  PfCRTDd2-mediated CQ transport P = 0.75: 7.91 pmol oocyte-1 h-1 and 7.73 pmol oocyte-1 h-1 and 11.16 pmol oocyte-1 h-1 and 8.67 pmol oocyte-1 h-1
PfCRT^Dd2; [4]
  PfCRTDd2-mediated CQ transport P = 0.9: 4.33 pmol oocyte-1 h-1 and 3.12 pmol oocyte-1 h-1 and 4.83 pmol oocyte-1 h-1
PfCRT^Dd2
  competition plot result (binding sites): bind at different sites
PfCRT^Dd2_F145I; [6]
  PfCRTDd2_F145I-mediated CQ transport P = 0: 14.23 pmol oocyte-1 h-1 and 18.19 pmol oocyte-1 h-1 and 22.31 pmol oocyte-1 h-1
PfCRT^Dd2_F145I; [1]
  PfCRTDd2_F145I-mediated CQ transport P = 0.25: 16.38 pmol oocyte-1 h-1 and 14.89 pmol oocyte-1 h-1 and 14.95 pmol oocyte-1 h-1
PfCRT^Dd2_F145I; [2]
  PfCRTDd2_F145I-mediated CQ transport P = 0.5: 11.20 pmol oocyte-1 h-1 and 13.42 pmol oocyte-1 h-1 and 11.66 pmol oocyte-1 h-1
PfCRT^Dd2_F145I; [3]
  PfCRTDd2_F145I-mediated CQ transport P = 0.75: 8.54 pmol oocyte-1 h-1 and 5.74 pmol oocyte-1 h-1 and 7.98 pmol oocyte-1 h-1
PfCRT^Dd2_F145I; [4]
  PfCRTDd2_F145I-mediated CQ transport P = 0.9: 3.23 pmol oocyte-1 h-1 and 2.52 pmol oocyte-1 h-1
PfCRT^Dd2_F145I
  competition plot result (binding sites): occupy different domains

Reference: paper PMC10281575, “PfCRT mutations conferring piperaquine resistance in falciparum malaria shape the kinetics of quinoline drug binding and transport” (PLOS Pathogens, 2023)
